Tests used:
[1] = test system: HCV replicon in human hepatoma Huh-7 cell line; test: Anti-HCV replicon assay (EC50, luciferase); type: cell-based; conditions: Hepatitis C virus, Huh-7, 72 h
Outline: (§1)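 Cytotoxicity (CC50) measured by CellTiter-Glo and antiviral activity (EC50) by luciferase signal from lysed cells, both by luminescence. Replicon-bearing Huh-7 cells, 6000 per well, incubated 3 days at 37 °C with threefold-diluted compound (0.5% DMSO for DMSO-dissolved compounds).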

[2] = CC50 assay (CellTiter-Glo) in Huh-7 HCV replicon cells; type: cell-based, human; conditions: human, 3 days incubation, CellTiter-Glo readout
Outline: as §1

SMILES	EC50 [1] [µM]	CC50 at 3 days [2] [µM]
N#CC1(NC(=O)c2ccc(-c3ccc4nc(NCc5ccc(S(N)(=O)=O)cc5)nc(NCC(F)(F)F)c4n3)cc2)CC1 [Example 159, 4-{[4-(2,2,2-Trifluoroethyl)-amino-6-(4-(N-(1-cyano-1-cyclopropyl)-carbamoyl)phenyl)-pyrido[3,2-d]pyrimidin-2-ylamino]-methyl}-benzenesulfonamide]	< 0.1	> 25
NC(=O)c1ccc(-c2ccc3nc(NCc4ccc(S(N)(=O)=O)cc4)nc(NCC(F)(F)F)c3n2)cc1 [Example 160]	< 0.1	5 to 25
CS(=O)(=O)N(CCO)c1cccc(-c2ccc3nc(NCc4ccc(S(N)(=O)=O)cc4)nc(NCC(F)(F)F)c3n2)c1 [Example 161, 4-{[4-(2,2,2-Trifluoroethyl)-amino-6-(4-(3-(N-2-hydroxyethyl)methane-sulfonamido)-phenyl)-pyrido[3,2-d]pyrimidin-2-ylamino]-methyl}-benzenesulfonamide]	< 0.1	> 25
CS(=O)(=O)CCNc1nc(NCc2ccc(S(N)(=O)=O)cc2)nc2ccc(-c3ccc(C(=O)NC4CC4)cc3)nc12 [Example 162, 4-{[4-(2-Methanesulfonylethyl)-amino-6-(4-(N-cyclopropylcarbamoyl)-phenyl)-pyrido[3,2-d]pyrimidin-2-ylamino]-methyl}-benzenesulfonamide]	0.1 to 0.25	> 25
CS(=O)(=O)CCNc1nc(NCc2ccc(S(N)(=O)=O)cc2)nc2ccc(-c3ccc(F)c(NS(=O)(=O)C4CC4)c3)nc12 [Example 164, 4-{[4-(2-Methanesulfonylethyl)-amino-6-(4-(3-cyclopropanesulfonamido-4-fluoro)-phenyl)-pyrido[3,2-d]pyrimidin-2-ylamino]-methyl}-benzenesulfonamide]	0.1 to 0.25	> 25
Cc1noc(C)c1-c1ccc2nc(NCc3ccc(S(N)(=O)=O)cc3)nc(NCC(F)(F)F)c2n1 [Example 165, 4-{[6-(3,5-Dimethyl-isoxazol-4-yl)-4-(2,2,2-trifluoro-ethylamino)-pyrido[3,2-d]pyrimidin-2-ylamino]-methyl}-benzenesulfonamide]	< 0.1	< 5
Cn1cc(-c2ccc3nc(NCc4ccc(S(N)(=O)=O)cc4)nc(NCC(F)(F)F)c3n2)cn1 [Example 166, 4-{[6-(1-Methyl-1H-pyrazol-4-yl)-4-(2,2,2-trifluoro-ethylamino)-pyrido[3,2-d]pyrimidin-2-ylamino]-methyl}-benzenesulfonamide]	< 0.1	> 25
NS(=O)(=O)c1ccc(CNc2nc(NCC(F)(F)F)c3nc(-c4cnc(N5CCCC5)cn4)ccc3n2)cc1 [Example 167, 4-{[6-(5-Pyrrolidin-1-yl-pyrazin-2-yl)-4-(2,2,2-trifluoro-ethylamino)-pyrido[3,2-d]pyrimidin-2-ylamino]-methyl}-benzenesulfonamide]	< 0.1	< 5
NS(=O)(=O)c1ccc(CNc2nc(NCC(F)(F)F)c3nc(-c4ccnc(C(F)(F)F)c4)ccc3n2)cc1 [Example 168, 4-{[4-(2,2,2-Trifluoro-ethylamino)-6-(2-trifluoromethyl-pyridin-4-yl)-pyrido[3,2-d]pyrimidin-2-ylamino]-methyl}-benzenesulfonamide]	< 0.1	> 25
Nc1cc(-c2ccc3nc(NCc4ccc(S(N)(=O)=O)cc4)nc(NCC(F)(F)F)c3n2)ccn1 [Example 169, 4-{[6-(2-Amino-pyridin-4-yl)-4-(2,2,2-trifluoro-ethylamino)-pyrido[3,2-d]pyrimidin-2-ylamino]-methyl}-benzenesulfonamide]	< 0.1	> 25
NS(=O)(=O)c1ccc(CNc2nc(NCC(F)(F)F)c3nc(-c4csc(N5CCCC5)n4)ccc3n2)cc1 [Example 170, 4-{[6-(2-Pyrrolidin-1-yl-thiazol-4-yl)-4-(2,2,2-trifluoro-ethylamino)-pyrido[3,2-d]pyrimidin-2-ylamino]-methyl}-benzenesulfonamide]	< 0.1	< 5
NS(=O)(=O)c1ccc(CNc2nc(NCC(F)(F)F)c3nc(-c4ccc(O)cc4)ccc3n2)cc1 [Example 171, 4-{[6-(4-Hydroxy-phenyl)-4-(2,2,2-trifluoro-ethylamino)-pyrido[3,2-d]pyrimidin-2-ylamino]-methyl}-benzenesulfonamide]	< 0.1	> 25
COc1cc(-c2ccc3nc(NCc4ccc(S(N)(=O)=O)cc4)nc(NCC(F)(F)F)c3n2)ccn1 [Example 172, 4-{[6-(2-Methoxy-pyridin-4-yl)-4-(2,2,2-trifluoro-ethylamino)-pyrido[3,2-d]pyrimidin-2-ylamino]-methyl}-benzenesulfonamide]	< 0.1	5 to 25
N#Cc1cc(-c2ccc3nc(NCc4ccc(S(N)(=O)=O)cc4)nc(NCC(F)(F)F)c3n2)ccn1 [Example 173, 4-{[6-(2-Cyano-pyridin-4-yl)-4-(2,2,2-trifluoro-ethylamino)-pyrido[3,2-d]pyrimidin-2-ylamino]-methyl}-benzenesulfonamide]	< 0.1	> 25
Nc1ncc(-c2ccc3nc(NCc4ccc(S(N)(=O)=O)cc4)nc(NCC(F)(F)F)c3n2)cn1 [Example 174, 4-{[6-(2-Amino-pyrimidin-5-yl)-4-(2,2,2-trifluoro-ethylamino)-pyrido[3,2-d]pyrimidin-2-ylamino]-methyl}-benzenesulfonamide]	< 0.1	> 25
N#Cc1cccc(-c2ccc3nc(NCc4ccc(S(N)(=O)=O)cc4)nc(NCC(F)(F)F)c3n2)c1 [Example 175, 4-{[6-(3-Cyano-phenyl)-4-(2,2,2-trifluoro-ethylamino)-pyrido[3,2-d]pyrimidin-2-ylamino]-methyl}-benzenesulfonamide]	< 0.1	> 25
CN1CC[C@H](C(=O)Nc2ccc(-c3ccc4nc(NCc5ccc(S(N)(=O)=O)cc5)nc(OC5CC5)c4n3)cc2)C1 [Example 176, 1-Methyl-pyrrolidine-3-carboxylic acid {4-[4-cyclopropoxy-2-(4-sulfamoyl-benzylamino)-pyrido[3,2-d]pyrimidin-6-yl]-phenyl}-amide]	< 0.1	> 25
CN1CC[C@H](C(=O)Nc2ccc(-c3ccc4nc(NCc5ccc(S(N)(=O)=O)cc5)nc(NCC(F)(F)F)c4n3)cc2F)C1 [Example 177, 1-Methyl-pyrrolidine-3-carboxylic acid {2-fluoro-4-[2-(4-sulfamoyl-benzylamino)-4-(2,2,2-trifluoro-ethylamino)-pyrido[3,2-d]pyrimidin-6-yl]-phenyl}-amide]	< 0.1	5 to 25
CN1CC[C@H](C(=O)Nc2ccc(-c3ccc4nc(NCc5ccc(S(N)(=O)=O)cc5)nc(NCC(F)(F)F)c4n3)cc2)C1 [Example 178, 1-Methyl-pyrrolidine-3-carboxylic acid {4-[2-(4-sulfamoyl-benzylamino)-4-(2,2,2-trifluoro-ethylamino)-pyrido[3,2-d]pyrimidin-6-yl]-phenyl}-amide]	< 0.1	5 to 25
NS(=O)(=O)c1ccc(CNc2nc(NCC(F)(F)F)c3nc(-c4ccc(N5CCC(O)C5=O)cc4)ccc3n2)cc1 (stereo not drawn) [Example 179, 4-{[6-[4-(3-Hydroxy-2-oxo-pyrrolidin-1-yl)-phenyl]-4-(2,2,2-trifluoro-ethylamino)-pyrido[3,2-d]pyrimidin-2-ylamino]-methyl}-benzenesulfonamide]	< 0.1	> 25
NS(=O)(=O)c1ccc(CNc2nc(NCC(F)(F)F)c3nc(-c4ccc(NC(=O)C5(O)CC5)cc4)ccc3n2)cc1 [Example 180, 1-Hydroxy-cyclopropanecarboxylic acid {4-[2-(4-sulfamoyl-benzylamino)-4-(2,2,2-trifluoro-ethylamino)-pyrido[3,2-d]pyrimidin-6-yl]-phenyl}-amide]	< 0.1	> 25
NS(=O)(=O)c1ccc(CNc2nc(NC3CC3)c3nc(-c4ccc(NC(=O)C5(O)CC5)cc4)ccc3n2)cc1 [Example 181, 1-Hydroxy-cyclopropanecarboxylic acid {4-[4-cyclopropylamino-2-(4-sulfamoyl-benzylamino)-pyrido[3,2-d]pyrimidin-6-yl]-phenyl}-amide]	< 0.1	< 5
N[C@@H](CO)C(=O)Nc1ccc(-c2ccc3nc(NCc4ccc(S(N)(=O)=O)cc4)nc(NC4CC4)c3n2)cc1 [Example 182, 2-Amino-N-{4-[4-cyclopropylamino-2-(4-sulfamoyl-benzylamino)-pyrido[3,2-d]pyrimidin-6-yl]-phenyl}-3-hydroxy-propionamide]	< 0.1	5 to 25
Nc1ncc(-c2ccc3nc(NCc4ccc(S(N)(=O)=O)cc4)nc(NC4CC4)c3n2)s1 [Example 183, 4-{[6-(2-Amino-thiazol-5-yl)-4-cyclopropylamino-pyrido[3,2-d]pyrimidin-2-ylamino]-methyl}-benzenesulfonamide]	< 0.1	5 to 25
NS(=O)(=O)c1ccc(CNc2nc(NC3CC3)c3nc(-c4ccc(F)c(NS(=O)(=O)C5CC5)c4)ccc3n2)cc1 [Example 184, 4-{[6-(3-Cyclopropanesulfonylamino-4-fluoro-phenyl)-4-cyclopropylamino-pyrido[3,2-d]pyrimidin-2-ylamino]-methyl}-benzenesulfonamide]	< 0.1	< 5
NS(=O)(=O)c1ccc(CNc2nc(NC3CC3)c3nc(-c4ccc(C(=O)NC5CC5)cc4)ccc3n2)cc1 [Example 185, N-Cyclopropyl-4-[4-cyclopropylamino-2-(4-sulfamoyl-benzylamino)-pyrido[3,2-d]pyrimidin-6-yl]-benzamide]	< 0.1	5 to 25
NC(=O)c1ccc(-c2ccc3nc(NCc4ccc(S(N)(=O)=O)cc4)nc(NC4CC4)c3n2)cc1 [Example 186, 4-[4-Cyclopropylamino-2-(4-sulfamoyl-benzylamino)-pyrido[3,2-d]pyrimidin-6-yl]-benzamide]	< 0.1	> 25
